logP data for 12 compounds are collected here from the OPERA property sets (Mansouri et al. 2018).

The term logP denotes the decadic logarithm of the partition coefficient of the neutral form, usually between octanol and water. Regarding `Cc1cc2c(OCC(O)CNC(C)C)cccc2[nH]1` (configuration not stated), the logP was determined as 2.3. On to `CC(C)NCC(O)COc1ccc(CCOCC2CC2)cc1` (configuration not stated), for which the logP is 2.81. In the case of `CC(C)NCC(O)COc1ccc(COCCOC(C)C)cc1` (configuration not stated) it was 1.87; in that of `C#CCOc1ccccc1OCC(O)CNC(C)(C)C` (configuration not stated), 2.32; in that of `CC(=O)Nc1ccc(OCC(O)CNC(C)C)c(C(C)=O)c1` (configuration not stated), 0.94. On to `CC(C)NC[C@H](O)COc1ccc(OCCOCCc2ccc(F)cc2)cc1`, for which the logP stood at 3.7. In the case of `CC(=O)Nc1ccc(OCC(O)CNCC(O)COc2ccccc2)cc1` (configuration not stated) it was 1.39; in that of `CC(=O)c1cc2cccc(OCC(O)CNC(C)C)c2o1` (configuration not stated), 2.02. In the case of `CC(C)NCC(O)COc1ccccc1C1CC1` (configuration not stated) it was 3.07.

The compound `CNC(=O)COc1ccccc1OCC(O)CNC(C)(C)C` (configuration not stated) returned a logP of 1.36. With `Cc1ccccc1OCC(O)CNCC(O)COc1ccccc1C` (configuration not stated) the figure was 3.67; with `COc1ccccc1OCC(O)CNC(C)C` (configuration not stated), 1.69.
